Biological target: T1, Recombinant human HSP90α (Homo sapiens, UniProt P07900)
T1 construct: host or cells: E. coli
Assay: radioligand filter binding test, competitive inhibition of [3H]17AAG binding to HSP90
Conditions: [3H]17AAG 0.08 μM, HSP90 1.5 μg/assay, 22° C., 30 min
Text: The binding of geldanamycin or 17-allylamino-17-demethoxygeldanamycin (17AAG) to HSP90 and competitive inhibition thereof can be utilised in order to determine the inhibitory activity of the compounds according to the invention (Carreras et al. 2003, Chiosis et al. 2002).
In the specific case, a radioligand filter binding test is used. The radio-ligand used here is tritium-labelled 17-allylaminogeldanamycin, [3H]17AAG. This filter binding test allows a targeted search for inhibitors which interfere with the ATP binding site. Material
Recombinant human HSP90α (E. coli expressed, 95% purity); [3H]17AAG (17-allylaminogeldanamycin, [allylamino-2,3-^3H. Specific activity: 1.11×10^12 Bq/mmol (Moravek, MT-1717);
HEPES filter buffer (50 mM HEPES, pH 7.0, 5 mM MgCl2, BSA 0.01%) Multiscreen FB (1 μm) filter plate (Millipore, MAFBNOB 50).
The 96-well microtitre filter plates are firstly irrigated and coated with 0.1% of polyethylenimine.
The test is carried out under the following conditions: • Reaction temperature 22° C. • Reaction time: 30 min., shaking at 800 rpm • Test volume: 50 μl • Final concentrations: • 50 mM HEPES HCl, pH 7.0, 5 mM MgCl2, 0.01% (w/v) BSA • HSP90: 1.5 μg/assay • [3H]17AAG: 0.08 μM.
At the end of the reaction, the supernatant in the filter plate is removed by suction with the aid of a vacuum manifold (Multiscreen Separation System, Millipore), and the filter is washed twice.
The filter plates are then measured in a beta counter (Microbeta, Wallac) with scintillator (Microscint 20, Packard).
“% of control” is determined from the “counts per minutes” values and the IC50 value of a compound is calculated therefrom.

Compound	IC50
CCCN(C)S(=O)(=O)c1cc(-c2nnc(O)n2-c2ccccc2CC)c(O)cc1O [A34, 5-[2,4-dihydroxy-5-(N-propyl-N-methylsulfamoyl)phenyl]-4-(2-ethyl-phenyl)-3-hydroxy-4H-1,2,4-triazole]	80 nM
CN(Cc1ccccc1)S(=O)(=O)c1cc(-c2nnc(O)n2-c2ccccc2Cl)c(O)cc1O [A32, 5-[2,4-dihydroxy-5-(N-benzyl-N-methylsulfamoyl)phenyl]-4-(2-chloro-phenyl)-3-hydroxy-4H-1,2,4-triazole]	140 nM
CCCN(C)S(=O)(=O)c1cc(-c2nnc(O)n2-c2cccc(Cl)c2)c(O)cc1O [A38, 5-[2,4-dihydroxy-5-(N-propyl-N-methylsulfamoyl)phenyl]-4-(3-chloro-phenyl)-3-hydroxy-4H-1,2,4-triazole]	330 nM
CCCCN(C)S(=O)(=O)c1cc(-c2nnc(O)n2-c2ccccc2Cl)c(O)cc1O [A26, 5-[2,4-dihydroxy-5-(N-butyl-N-methylsulfamoyl)phenyl]-4-(2-chloro-phenyl)-3-hydroxy-4H-1,2,4-triazole]	120 nM
CCCN(C)S(=O)(=O)c1cc(-c2nnc(O)n2-c2ccccc2Cl)c(O)cc1O [A28, 5-[2,4-dihydroxy-5-(N-propyl-N-methylsulfamoyl)phenyl]-4-(2-chloro-phenyl)-3-hydroxy-4H-1,2,4-triazole]	160 nM

Further lines, results first:

IC50	Compound
140 nM	CCCN(C)S(=O)(=O)c1cc(-c2nnc(O)n2-c2ccccc2C)c(O)cc1O [A40, 5-[2,4-dihydroxy-5-(N-propyl-N-methylsulfamoyl)phenyl]-4-(2-methyl-phenyl)-3-hydroxy-4H-1,2,4-triazole]
180 nM	CCCN(C)S(=O)(=O)c1cc(-c2nnc(O)n2-c2cccc(F)c2)c(O)cc1O [A39, 5-[2,4-dihydroxy-5-(N-propyl-N-methylsulfamoyl)phenyl]-4-(3-fluoro-phenyl)-3-hydroxy-4H-1,2,4-triazole]
